In patent publication US20100291706A1, “DYE CONJUGATES AND METHODS OF USE” (Millipore Corporation, priority 2009, published 2010):

Assay: Absorbance spectra of cyanine dye stocks
Assay type: physicochemical
Conditions: free dye
Procedure: Phycoerythrin conjugates: NGyS, NGy7 and Gy5 dye stocks are resuspended, their absorbances determined and their concentrations calculated. Phycoerythrin (PE) aliquots (2 nmoles) are treated in 0.5 M sodium carbonate pH 9.0 for 1.5 hr at room temperature with: a) 1:15, 1:30, 1:50 or 1:80 fold molar excesses of NGyS; b) 1:15 or 1:30 fold molar excesses of NGy7; or c) 1:30 or 1:50 molar excesses of Gy5. After conjugation, each reaction mixture is loaded on a PD-10 column and eluted with PBS. Fractions containing protein are pooled together for each mixture. Absorbance and fluorescence spectra of the products are obtained and energy transfer efficiency assessed.
Streptavidin conjugates: The concentration of a dye solution is determined through absorbance readings of appropriate dye dilutions. Streptavidin is treated with a molar excess (e.g., 20 fold excess) of dye in sodium carbonate buffer (pH 9.0) for one hour. After conjugation, the mixture is purified on a PD-10 column using PBS as an eluent buffer, and 0.5 mL fractions are collected. Major fractions containing the streptavidin-dye conjugate are pooled together and absorbance and emission spectra are acquired.

absorption maximum: 751.8 nm
SMILES: CCN1C(=CC=CC=CC=CC2=[N+](CCCCCC(=O)O)c3ccc(S(=O)(=O)O)cc3C2(C)C)C(C)(C)c2cc(S(=O)(=O)[O-])ccc21 [Cy7]
